Earlier results in patent US20060069047A1, “Antibiotic conjugates” (priority 2002, published 2006).

Tests used:
PMN = details: intracellular/extracellular concentration, PMN incubated 1 h
[1] = in vivo

Compound | I/E ratio (PMN) | cellular-to-extracellular concentration ratio (C/E) (phagocytic cells) | half-life (t1/2) [1] [h]
CC[C@H]1OC(=O)[C@H](C)[C@@H](O[C@H]2C[C@@](C)(OC)[C@@H](O)[C@H](C)O2)[C@H](C)[C@@H](O[C@@H]2O[C@H](C)C[C@H](N(C)C)[C@H]2O)[C@](C)(O)C[C@@H](C)CN(C)[C@H](C)[C@@H](O)[C@]1(C)O [Azithromycin] | 517 | ~500 | ~68
CC[C@H]1OC(=O)[C@H](C)C(=O)[C@H](C)[C@@H](O[C@@H]2O[C@H](C)C[C@H](N(C)C)[C@H]2O)[C@](C)(OC)C[C@@H](C)C(=O)[C@H](C)[C@H]2N(CCCCn3cnc(-c4cccnc4)c3)C(=O)O[C@]12C [Telithromycin] | 197 | – | –

The remaining lines, values ahead:

I/E ratio (PMN) | cellular-to-extracellular concentration ratio (C/E) (phagocytic cells) | half-life (t1/2) [1] [h] | Compound
12.0 | – | – | COc1c(N2C[C@@H]3CCCN[C@@H]3C2)c(F)cc2c(=O)c(C(=O)O)cn(C3CC3)c12 [Moxifloxacin]
4.8 | – | – | C[C@H]1COc2c(N3CCN(C)CC3)c(F)cc3c(=O)c(C(=O)O)cn1c23 [Levofloxacin]
0.16 | – | – | CC1(C)SC2C(NC(=O)Cc3ccccc3)C(=O)N2C1C(=O)O (stereo not shown) [Penicillin G, 3,3-Dimethyl-7-oxo-6-phenylacetylamino-4-thia-1-aza-bicyclo[3.2.0]heptane-2-carboxylic acid]
